The values that follow come from patent US6531606B1, “Pharmaceutical compositions incorporating aryl substituted olefinic amine compounds” (Targacept, Inc., priority 1997, dated 2003).

Series [1] has as its target T1, high affinity CNS nicotinic receptors (Rattus norvegicus, UniProt P09483+P12390).
T1 construct: from tissue
The series can be described thus: biochemical. Format: binding. To be noted: calculated from IC50 values using the method of Cheng et al.

The subject of series [2] is CNS nicotinic receptors (dopamine release). The series can be described thus: Determination of dopamine release. Format: cell-based. The conditions noted are these: for Emax: read-out: Dopamine Release Emax.
The target in series [3] is T2, muscle receptors (nicotinic receptors of human muscle) (Homo sapiens, UniProt P02708+P07510+Q07001).
T2 construct: endogenous in cells; host or cells: cell preparations derived from muscle
T2 sequence (P02708 21-457): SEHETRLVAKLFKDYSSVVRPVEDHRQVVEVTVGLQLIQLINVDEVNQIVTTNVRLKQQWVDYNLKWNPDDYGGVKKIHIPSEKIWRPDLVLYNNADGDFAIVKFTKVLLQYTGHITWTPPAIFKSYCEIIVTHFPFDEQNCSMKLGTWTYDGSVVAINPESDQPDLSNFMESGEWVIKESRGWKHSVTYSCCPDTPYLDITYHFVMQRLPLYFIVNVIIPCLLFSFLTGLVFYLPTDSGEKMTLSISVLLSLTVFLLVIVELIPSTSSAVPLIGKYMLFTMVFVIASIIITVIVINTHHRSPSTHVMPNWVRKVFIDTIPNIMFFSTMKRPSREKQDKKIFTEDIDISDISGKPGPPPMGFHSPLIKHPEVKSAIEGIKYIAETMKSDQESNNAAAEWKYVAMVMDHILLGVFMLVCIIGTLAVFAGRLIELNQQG
T2 sequence (P11230 24-501 partner): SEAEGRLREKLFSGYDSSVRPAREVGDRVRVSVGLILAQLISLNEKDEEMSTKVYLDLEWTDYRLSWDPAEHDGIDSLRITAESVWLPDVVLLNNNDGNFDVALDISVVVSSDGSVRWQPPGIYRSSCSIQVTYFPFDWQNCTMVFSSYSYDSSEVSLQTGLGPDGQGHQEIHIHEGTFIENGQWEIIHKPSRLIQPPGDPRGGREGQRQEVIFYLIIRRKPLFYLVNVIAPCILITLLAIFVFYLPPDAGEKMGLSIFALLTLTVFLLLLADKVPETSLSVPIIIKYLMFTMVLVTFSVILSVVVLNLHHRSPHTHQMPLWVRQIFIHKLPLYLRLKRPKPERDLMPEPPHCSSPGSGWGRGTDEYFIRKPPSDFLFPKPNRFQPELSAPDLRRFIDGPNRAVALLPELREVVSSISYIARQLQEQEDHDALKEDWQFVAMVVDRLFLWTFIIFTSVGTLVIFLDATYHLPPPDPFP
T2 sequence (Q07001 22-517): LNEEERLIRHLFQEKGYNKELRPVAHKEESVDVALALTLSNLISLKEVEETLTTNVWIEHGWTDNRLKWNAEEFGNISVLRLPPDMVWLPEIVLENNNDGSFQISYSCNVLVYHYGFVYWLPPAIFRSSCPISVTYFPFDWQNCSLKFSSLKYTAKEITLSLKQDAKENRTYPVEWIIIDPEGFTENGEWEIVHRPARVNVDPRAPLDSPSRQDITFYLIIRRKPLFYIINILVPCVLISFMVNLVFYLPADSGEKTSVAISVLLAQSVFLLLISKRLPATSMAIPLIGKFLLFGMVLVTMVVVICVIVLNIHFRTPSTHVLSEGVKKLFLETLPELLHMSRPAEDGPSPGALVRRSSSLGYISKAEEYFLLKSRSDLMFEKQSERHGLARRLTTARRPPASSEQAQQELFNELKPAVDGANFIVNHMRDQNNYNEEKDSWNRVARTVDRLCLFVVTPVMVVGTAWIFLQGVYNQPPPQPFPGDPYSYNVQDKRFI
T2 sequence (P07510 23-517): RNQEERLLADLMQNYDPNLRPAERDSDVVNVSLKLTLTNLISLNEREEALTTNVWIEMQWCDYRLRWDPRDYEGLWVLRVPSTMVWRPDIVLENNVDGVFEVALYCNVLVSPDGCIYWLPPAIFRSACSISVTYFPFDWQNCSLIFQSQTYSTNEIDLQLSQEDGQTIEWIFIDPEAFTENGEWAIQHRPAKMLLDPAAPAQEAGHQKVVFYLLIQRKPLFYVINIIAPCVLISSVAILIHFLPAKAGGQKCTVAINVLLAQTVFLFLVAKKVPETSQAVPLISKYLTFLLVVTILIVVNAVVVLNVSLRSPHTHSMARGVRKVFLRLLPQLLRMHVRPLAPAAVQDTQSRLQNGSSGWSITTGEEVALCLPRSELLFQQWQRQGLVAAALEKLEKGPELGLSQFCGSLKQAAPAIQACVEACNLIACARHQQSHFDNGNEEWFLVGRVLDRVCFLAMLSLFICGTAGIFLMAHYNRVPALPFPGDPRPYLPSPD
The series can be described thus: Determination of interaction with muscle. The conditions noted are these: maximal activation (Emax) as percentage of maximal activation induced by (S)-(-)-nicotine. Format: cell-based. The text has this: The compounds of the present invention, when employed in effective amounts in accordance with the method of the present invention, lack the ability to elicit activation of nicotinic receptors of human muscle to any significant degree. […] Generally, typical compounds useful in carrying out the present invention activate isotopic rubidium ion flux by less than 20 percent, often by less than 15 percent, and frequently by less than 10 percent, of that elicited by an equal molar amount of (S)-(−)-nicotine.
The determination of the interaction of the compounds with muscle receptors was carried out in accordance with the techniques described in U.S. Pat. No. 5,597,919 to Dull et al., the subject matter of which is already incorporated herein by reference in its entirety. […] The maximal activation for individual compounds (Emax) was determined as a percentage of the maximal activation induced by (S)-(−)-nicotine.

Series [4] deals with T3, ganglionic receptors (ganglionic-type nicotinic receptors) (Rattus norvegicus, UniProt P04757+P12392).
T3 construct: endogenous in cells; host or cells: cell preparations derived from the adrenal gland
T3 sequence (P04757 26-499): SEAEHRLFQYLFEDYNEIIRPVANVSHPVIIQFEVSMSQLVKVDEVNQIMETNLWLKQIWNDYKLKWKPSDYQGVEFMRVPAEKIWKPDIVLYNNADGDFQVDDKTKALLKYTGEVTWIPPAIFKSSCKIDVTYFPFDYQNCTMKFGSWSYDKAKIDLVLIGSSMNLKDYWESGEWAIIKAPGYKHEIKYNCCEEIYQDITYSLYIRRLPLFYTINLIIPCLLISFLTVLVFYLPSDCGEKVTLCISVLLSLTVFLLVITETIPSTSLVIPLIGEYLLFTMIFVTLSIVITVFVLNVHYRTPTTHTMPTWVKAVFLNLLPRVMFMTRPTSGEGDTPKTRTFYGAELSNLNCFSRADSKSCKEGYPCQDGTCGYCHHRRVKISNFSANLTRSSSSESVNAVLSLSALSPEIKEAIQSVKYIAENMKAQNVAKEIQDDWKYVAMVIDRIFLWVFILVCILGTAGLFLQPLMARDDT
T3 sequence (P12392 21-495): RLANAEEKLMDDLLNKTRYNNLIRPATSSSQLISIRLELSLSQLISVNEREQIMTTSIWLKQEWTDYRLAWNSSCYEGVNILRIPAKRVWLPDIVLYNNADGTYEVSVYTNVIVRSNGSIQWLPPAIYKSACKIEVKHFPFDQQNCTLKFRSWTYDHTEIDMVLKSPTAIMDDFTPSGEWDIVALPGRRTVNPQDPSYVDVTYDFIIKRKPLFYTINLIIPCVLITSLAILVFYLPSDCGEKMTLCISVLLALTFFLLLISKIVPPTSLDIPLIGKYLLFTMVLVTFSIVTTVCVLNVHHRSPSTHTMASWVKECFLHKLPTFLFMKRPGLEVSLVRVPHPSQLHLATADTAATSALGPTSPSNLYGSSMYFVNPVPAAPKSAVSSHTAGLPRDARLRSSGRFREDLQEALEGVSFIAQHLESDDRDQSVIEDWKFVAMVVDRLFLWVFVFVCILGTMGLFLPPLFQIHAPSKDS
The series can be described thus: Determination of interaction with ganglia. In kind it is cell-based. The conditions noted are these: maximal activation (Emax) as percentage of maximal activation induced by (S)-(-)-nicotine. The text has this:
By this is meant that a particular dose of compound resulting in prevention and/or treatment of a CNS disorder is essentially ineffective in eliciting activation of certain ganglionic-type nicotinic receptors. […] As such, the compounds of the present invention have poor ability to cause isotopic rubidium ion flux through nicotinic receptors in cell preparations derived from the adrenal gland. Generally, the compounds useful in the present invention activate isotopic rubidium ion flux by less than 25 percent, often by less than 15 percent, frequently by less than 10 percent, and even essentially 0 percent, of that elicited by an equal molar amount of (S)-(−)-nicotine.
The determination of the interaction of the compounds with ganglionic receptors was carried out in accordance with the techniques described in U.S. Pat. No. 5,597,919 to Dull et al., the subject matter of which is already incorporated herein by reference in its entirety. […] The maximal activation for individual compounds (Emax) was determined as a percentage of the maximal activation induced by (S)-(−)-nicotine.

The mark [5] stands for this setting: read-out: Dopamine Release EC50 (nM).

The structures appear in SMILES notation. Structures can show the parent of a compound that is named as a salt. Where two headings read alike, the source gives them in different places.

T1 sequence (P09483 31-630): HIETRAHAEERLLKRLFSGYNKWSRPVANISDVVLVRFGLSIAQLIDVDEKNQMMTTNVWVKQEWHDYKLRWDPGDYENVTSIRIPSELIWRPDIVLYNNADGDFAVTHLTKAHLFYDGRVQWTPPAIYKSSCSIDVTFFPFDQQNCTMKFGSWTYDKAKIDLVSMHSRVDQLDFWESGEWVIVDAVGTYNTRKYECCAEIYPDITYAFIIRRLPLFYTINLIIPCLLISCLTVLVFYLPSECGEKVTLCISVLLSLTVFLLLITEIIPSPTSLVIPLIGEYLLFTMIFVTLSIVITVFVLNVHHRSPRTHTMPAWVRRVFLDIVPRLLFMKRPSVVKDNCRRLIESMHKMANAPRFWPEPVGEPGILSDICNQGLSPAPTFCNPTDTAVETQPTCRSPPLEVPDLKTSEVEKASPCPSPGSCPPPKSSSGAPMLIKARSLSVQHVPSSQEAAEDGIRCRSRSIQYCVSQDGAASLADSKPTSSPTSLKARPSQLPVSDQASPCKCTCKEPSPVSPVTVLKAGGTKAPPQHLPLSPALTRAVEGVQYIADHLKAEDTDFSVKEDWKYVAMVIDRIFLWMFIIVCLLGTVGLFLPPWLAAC
T1 sequence (P12390 25-500): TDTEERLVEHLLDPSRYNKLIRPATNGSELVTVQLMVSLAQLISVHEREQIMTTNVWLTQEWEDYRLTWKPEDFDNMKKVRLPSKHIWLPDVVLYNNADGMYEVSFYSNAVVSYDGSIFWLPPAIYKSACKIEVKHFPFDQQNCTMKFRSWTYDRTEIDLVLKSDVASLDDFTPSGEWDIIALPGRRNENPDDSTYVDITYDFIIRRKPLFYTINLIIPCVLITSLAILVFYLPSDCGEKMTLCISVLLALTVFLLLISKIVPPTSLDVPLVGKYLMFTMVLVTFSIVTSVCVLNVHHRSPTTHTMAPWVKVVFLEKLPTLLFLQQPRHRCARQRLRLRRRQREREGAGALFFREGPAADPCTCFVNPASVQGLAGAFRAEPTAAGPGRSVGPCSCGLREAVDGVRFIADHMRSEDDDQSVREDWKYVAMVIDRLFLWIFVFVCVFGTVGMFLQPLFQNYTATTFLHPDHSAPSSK

Consider `NCC/C=C/c1cncc(Br)c1` (as salt: fumarate) [Sample No. 2, (E)-4-[3-(5-Bromopyridin)yl]-3-buten-1-amine Hemifumarate], for which the melting point (commonly the temperature of the solid-liquid transition) lay in the range of 175 to 176.5 °C.
As for `CNCC/C=C/c1cncc(OCc2ccccc2)c1` [Sample No. 1, (E)-N-Methyl-4-[3-(5-benzyloxypyridin)yl]-3-buten-1-amine], the Ki (commonly the dissociation constant of the complex between target and ligand, obtained from inhibition or displacement) in series [1] was 5 nM. In addition, the EC50 (commonly the midpoint of the concentration-response curve) in series [2] (setting [5]) is 4000 nM. In addition, in series [3], the “Muscle Effect (% nicotine)” value came to 12 % nicotine. The “Ganglion Effect (% nicotine)” value in series [4] amounted to 0 % nicotine.
For the compound `NCC/C=C/c1cncc(Br)c1` [Sample No. 2, (E)-4-[3-(5-Bromopyridin)yl]-3-buten-1-amine Hemifumarate], the Ki in series [1] was 79 nM. In addition, the EC50 in series [2] (setting [5]) came to 2400 nM. Moreover, the Emax (commonly the greatest response seen or fitted, relative to the assay's reference) in series [2] was found to be 107%. Moreover, the “Muscle Effect (% nicotine)” value in series [3] stood at 8 % nicotine. Besides, in series [4], the “Ganglion Effect (% nicotine)” value is on record as 11 % nicotine.
As for `CNCC/C=C/c1cncc(Oc2ccccc2)c1` [Sample No. 3, (E)-N-Methyl-4-[3-(5-phenoxypyridin)yl]-3-buten-1-amine], the Ki in series [1] was 21 nM. Also, in series [2] (setting [5]), the EC50 stood at 114 nM. For the same compound, in series [3], the “Muscle Effect (% nicotine)” value is recorded as 5 % nicotine. The “Ganglion Effect (% nicotine)” value in series [4] is below 15 % nicotine.
For the compound `CNCC/C=C/c1cncc(OC(C)C)c1` [Sample No. 4, (E)-N-Methyl-4-[3-(5-isopropoxypyridin)yl]-3-buten-1-amine], the Ki in series [1] is 6 nM. The “Muscle Effect (% nicotine)” value in series [3] came out at 8 % nicotine. In addition, in series [4], the “Ganglion Effect (% nicotine)” value is recorded as below 15 % nicotine.
In the case of `CNCC/C=C/c1cncc(COC)c1` [Sample No. 5, (E)-N-Methyl-4-[3-(5-methoxymethylpyridin)yl]-3-buten-1-amine], the Ki in series [1] is 130 nM. The EC50 in series [2] (setting [5]) was determined as 16000 nM. Moreover, in series [3], the “Muscle Effect (% nicotine)” value worked out at 13 % nicotine. For the same compound, in series [4], the “Ganglion Effect (% nicotine)” value was determined as 0 % nicotine.
As to `NCC/C=C/c1cccnc1.O=C(O)/C=C/C(=O)O.O=C(O)/C=C/C(=O)O` [Sample No. 6, (E)-4-(3-pyridinyl)-3-buten-1-amine difumarate], in series [1], the inhibition constant Ki was 119 nM. Also, the concentration for a half-maximal effect (EC50) in series [2] (setting [5]) worked out at 5020 nM. In addition, in series [2], the maximal effect (Emax) came out at 81%. The “Muscle Effect (% nicotine)” value in series [3] stood at 15 % nicotine. Also, the “Ganglion Effect (% nicotine)” value in series [4] is recorded as 23 % nicotine.
Take `CCOc1cncc(/C=C/CCNC)c1` [Sample No. 7, (E)-N-Methyl-4-[3-(5-ethoxypyridin)yl]-3-buten-1-amine Sesquifumarate]: the Ki in series [1] was 5 nM. Besides, in series [2] (read-out: Dopamine Release EC50), the concentration for a half-maximal effect (EC50) was found to be 276 nM. Besides, the maximal response (Emax) in series [2] turned out to be 70%. Moreover, in series [3], the “Muscle Effect (% nicotine)” value turned out to be 3 % nicotine. In series [4], the “Ganglion Effect (% nicotine)” value was below 15 % nicotine.
`CNCC/C=C/c1cncc(-c2ccccc2)c1` [Sample No. 8, (E)-N-Methyl-4-[3-(5-phenylpyridin)yl]-3-buten-1-amine]: the Ki in series [1] is 184 nM. Moreover, the EC50 in series [2] (setting [5]) was above 100000 nM. Further, the “Muscle Effect (% nicotine)” value in series [3] was 8 % nicotine. Besides, the “Ganglion Effect (% nicotine)” value in series [4] came out at 0 % nicotine.
In the case of `CNCC/C=C/c1cncc(N)c1` [Sample No. 9, (E)-N-methyl-4-[3-(5-aminopyridin)yl]-3-buten-1-amine], the Ki in series [1] was 658 nM. Further, the EC50 in series [2] (setting [5]) was 2000 nM. Also, the maximum response (Emax) in series [2] was found to be 85%. For the same compound, in series [3], the “Muscle Effect (% nicotine)” value worked out at 4 % nicotine. Moreover, in series [4], the “Ganglion Effect (% nicotine)” value is 4 % nicotine.
On to `CN1CCC[C@H]1c1cccnc1` [Sample No. C-1, (S)-(−)-nicotine, reference compound], for which, in series [3], the “Muscle Effect (% nicotine)” value is recorded as 100 % nicotine. For the same compound, the “Ganglion Effect (% nicotine)” value in series [4] is given as 100 % nicotine.
